Structures are written as SMILES.

Data set [1] in a line: stability in artificial gastric juice. It counts as in vitro ADME. Particulars: both in pure form and in diluted form.
Data set [2] is described as follows: stability in artificial intestinal juice. The data set is classed as in vitro ADME. Particulars: both in pure form and in diluted form.

As for `C[C@]1(OC(=O)/C=C/c2ccccc2)C[C@@H](O)[C@]2(O)C=CO[C@@H](O[C@@H]3O[C@H](CO)[C@@H](O)[C@H](O)[C@H]3O)[C@@H]21` [harpagoside], the “stability in artificial gastric juice” value in data set [1] is “stable for at least two hours”. Also, the “stability in artificial intestinal juice” value in data set [2] is “stable for at least two hours”.
